Where two headings read alike, the source gives them in different places.
Biological target: T1, 11β-HSD1 (Homo sapiens, UniProt P28845)
T1 construct: detecting cortisol generated from cortisterone by human liver microsomes; from tissue; host or cells: human liver microsomes
Assay: In vitro inhibition of 11β-HSD1, HTRF detection of cortisol generated by human liver microsomes
Type: biochemical
Conditions: for remaining activity at 0.1 µM: read-out: Average % control inhibition at 100 nM
Description: The ratio of the two emission signals is then calculated (Em665*10000/Em615).

[1] = at 100 nM, 100% indicates no inhibition, zero or below zero indicates complete inhibition, Biological Test Example B
[2] = at 100 nM, 100% indicates no inhibition, zero or below zero indicates complete inhibition, Biological Test Example C
[3] = at 100 nM, 100% indicates no inhibition, zero or below zero indicates complete inhibition, Biological Test Example D

T1 sequence (P28845 whole entry): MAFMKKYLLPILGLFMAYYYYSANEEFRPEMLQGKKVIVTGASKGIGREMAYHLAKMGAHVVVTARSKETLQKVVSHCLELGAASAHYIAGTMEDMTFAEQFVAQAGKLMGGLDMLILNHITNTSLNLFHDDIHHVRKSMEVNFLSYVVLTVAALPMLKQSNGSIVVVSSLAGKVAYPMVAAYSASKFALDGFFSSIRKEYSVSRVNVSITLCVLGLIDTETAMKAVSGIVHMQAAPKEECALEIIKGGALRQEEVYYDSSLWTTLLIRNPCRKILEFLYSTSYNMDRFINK

Row | Compound | remaining activity at 0.1 µM | also measured
1 | Cc1nnc(-c2ccc([C@H](C)N3CC[C@](CC(C)C)(c4ccccc4)OC3=O)cc2)o1 (stereo in doubt) [Example 1, (S)-6-Isobutyl-3-{1-[4-(5-methyl-[1,3,4]oxadiazol-2-yl)-phenyl]-ethyl}-6-phenyl-[1,3]oxazinan-2-one] | 2% | 
2 | Cc1nnc(-c2ccc([C@H](C)N3CC[C@](CC(C)(C)O)(c4ccccc4)OC3=O)cc2)n1C [Example 2, 3-{(S)-1-[4-(4,5-Dimethyl-4H-[1,2,4]triazol-3-yl)-phenyl]-ethyl}-(S)-6-(2-hydroxy-2-methyl-propyl)-6-phenyl-[1,3]oxazinan-2-one] | 95% | 
3 | Cc1nnc(-c2ccc([C@H](C)N3CC[C@](CC(C)(C)O)(c4ccccc4)OC3=O)cc2)o1 [Example 3, (S)-6-(2-hydroxy-2-methyl-propyl)-3-{(S)-1-[4-(5-methyl-[1,3,4]oxadiazol-2-yl)-phenyl]-ethyl}-6-phenyl-[1,3]oxazinan-2-one] | 38% | 
4 | C[C@@H](c1ccc(-c2nnco2)cc1)N1CC[C@](CC(C)(C)O)(c2ccccc2)OC1=O [Example 5, (S)-6-(2-Hydroxy-2-methyl-propyl)-3-[(S)-1-(4-[1,3,4]oxadiazol-2-yl-phenyl)-ethyl]-6-phenyl-[1,3]oxazinan-2-one] | 48% | 
5 | Cc1nc(-c2ccc([C@H](C)N3CC[C@](CC(C)(C)O)(c4ccccc4)OC3=O)cc2)no1 [Example 6, (S)-6-(2-Hydroxy-2-methyl-propyl)-3-{(S)-1-[4-(5-methyl-[1,2,4]oxadiazol-3-yl)-phenyl]-ethyl}-6-phenyl-[1,3]oxazinan-2-one] | 40% | 
6 | C[C@@H](c1ccc(-c2ncon2)cc1)N1CC[C@](CC(C)(C)O)(c2ccccc2)OC1=O [Example 7, (S)-6-(2-Hydroxy-2-methyl-propyl)-3-[(S)-1-(4-[1,2,4]oxadiazol-3-yl-phenyl)-ethyl]-6-phenyl-[1,3]oxazinan-2-one] | 50% | 
7 | C[C@@H](c1ccc(C(N)=O)cc1)N1CC[C@](CC(C)(C)O)(c2ccccc2)OC1=O [Example 8, 4-{(S)-1-[(S)-6-(2-Hydroxy-2-methyl-propyl)-2-oxo-6-phenyl-[1,3]oxazinan-3-yl]-ethyl}-benzamide] | 92% | 
8 | Cc1noc(C)c1-c1ccc([C@H](C)N2CC[C@](CC(C)(C)O)(c3ccccc3)OC2=O)cc1 [Example 10, 3-{(S)-1-[4-(3,5-Dimethyl-isoxazol-4-yl)-phenyl]-ethyl}-(S)-6-(2-hydroxy-2-methyl-propyl)-6-phenyl-[1,3]oxazinan-2-one] | 20% | 
9 | C[C@@H](c1ccc(-c2ccsc2)cc1)N1CC[C@](CC(C)(C)O)(c2ccccc2)OC1=O [Example 11, (S)-6-(2-Hydroxy-2-methyl-propyl)-6-phenyl-3-[(S)-1-(4-thiophen-3-yl-phenyl)-ethyl]-[1,3]oxazinan-2-one] | 13% | 
10 | C[C@@H](c1ccc(-c2nc3c(=O)n(C)c(=O)n(C)c3n2C)cc1)N1CC[C@](CC(C)(C)O)(c2ccccc2)OC1=O [Example 12, 8-(4-{(S)-1-[(S)-6-(2-Hydroxy-2-methyl-propyl)-2-oxo-6-phenyl-[1,3]oxazinan-3-yl]-ethyl}-phenyl)-1,3,9-trimethyl-3,9-dihydro-purine-2,6-dione] | 98% | 
11 | C[C@@H](c1ccc(-c2ccco2)cc1)N1CC[C@](CC(C)(C)O)(c2ccccc2)OC1=O [Example 13, 3-[(S)-1-(4-Furan-2-yl-phenyl)-ethyl]-(S)-6-(2-hydroxy-2-methyl-propyl)-6-phenyl-[1,3]oxazinan-2-one] | -2% | 
12 | C[C@@H](c1ccc(-c2ccoc2)cc1)N1CC[C@](CC(C)(C)O)(c2ccccc2)OC1=O [Example 20, 3-[(S)-1-(4-Furan-3-yl-phenyl)-ethyl]-(S)-6-(2-hydroxy-2-methyl-propyl)-6-phenyl-[1,3]oxazinan-2-one] | 10% | 
13 | COC(=O)COc1ccc(-c2ccc([C@H](C)N3CC[C@](CC(C)(C)O)(c4ccccc4)OC3=O)cc2)cc1 [Example B2, (4′-{(S)-1-[(S)-6-(2-Hydroxy-2-methyl-propyl)-2-oxo-6-phenyl-[1,3]oxazinan-3-yl]-ethyl}-biphenyl-4-yloxy)-acetic acid methyl ester] |  | remaining activity at 0.1 µM [1]: 18%
14 | C[C@@H](c1ccc(-c2nnc(C(F)(F)F)s2)cc1)N1CC[C@](CC(C)(C)O)(c2ccccc2)OC1=O [Example C2, (S)-6-(2-Hydroxy-2-methyl-propyl)-6-phenyl-3-{(S)-1-[4-(5-trifluoromethyl-[1,3,4]thiadiazol-2-yl)-phenyl]-ethyl}-[1,3]oxazinan-2-one] |  | remaining activity at 0.1 µM [2]: 60%
15 | C[C@@H](c1ccc(C2CCOC2)cc1)N1CC[C@](CC(C)(C)O)(c2ccccc2)OC1=O (stereo partly drawn) [Example C4, (S)-6-(2-Hydroxy-2-methyl-propyl)-6-phenyl-3-{(S)-1-[4-(tetrahydro-furan-3-yl)-phenyl]-ethyl}-[1,3]oxazinan-2-one] |  | remaining activity at 0.1 µM [2]: 30%
16 | C[C@@H](c1ccc(-c2ccc(OCCO)cc2)cc1)N1CC[C@](CC(C)(C)O)(c2ccccc2)OC1=O [Example D6, 3-{(S)-1-[4′-(2-Hydroxy-ethoxy)-biphenyl-4-yl]-ethyl}-(S)-6-(2-hydroxy-2-methyl-propyl)-6-phenyl-[1,3]oxazinan-2-one] |  | remaining activity at 0.1 µM [3]: -12%
17 | C[C@@H](c1ccc(-c2ccc(OCC(C)(C)O)cc2)cc1)N1CC[C@](CC(C)(C)O)(c2ccccc2)OC1=O [Example D7, 3-{(S)-1-[4′-(2-Hydroxy-2-methyl-propoxy)-biphenyl-4-yl]-ethyl}-(S)-6-(2-hydroxy-2-methyl-propyl)-6-phenyl-[1,3]oxazinan-2-one] |  | remaining activity at 0.1 µM [3]: 3%
18 | (S)-6-(2-Hydroxy-2-methyl-propyl)-6-phenyl-3-((S)-1-{4-[2-(alkoxy)-pyridin-4-yl]-phenyl}-ethyl)-[1,3]oxazinan-2-one [Example E1] |  | Average % control inhibition at 100 nM (at 100 nM, 100% indicates no inhibition, zero or below zero indicates complete inhibition, Biological Test Example E): 25%
19 | (S)-6-(2-Hydroxy-2-methyl-propyl)-6-phenyl-3-{(S)-1-[4′-(alkoxy)-biphenyl-4-yl]-ethyl}-[1,3]oxazinan-2-one [Example B1] |  | Average % control inhibition at 100 nM [1]: 0%

Source: US8637505B2, “Cyclic inhibitors of 11beta-hydroxysteroid dehydrogenase 1” (Boehringer Ingelheim International GmbH, priority 2009, dated 2014)
